Experimental data as given in PubChem BioAssay AID248 (DTP/NCI, 2004).
“And” between values parts separate entries of the source, which are not always exact repeats. Equal entries are not always repeated. Inconclusive results and toxic doses are left out. Rule as the data show it: active = T/C of 150% or more; inactive = T/C below 125%.

System: L1210 leukemia ip in BDF1 mice, survival T/C
Assay: NCI In Vivo Anticancer Drug Screen. Data for tumor model L1210 Leukemia (intraperitoneal) in B6D2F1 (BDF1) mice
Details: endpoint: mean survival time, higher = longer survival
Method in brief: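 Transplantable tumor model; survival measured in treated vs vehicle control mice. Value = treated/control.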

[1] = dose: 100.0 mg/kg/injection, schedule: Q04DX003 (ip), vehicle: saline with Tween-80
[2] = dose: 200.0 mg/kg/injection, schedule: Q04DX003 (ip), vehicle: saline with Tween-80
[3] = dose: 400.0 mg/kg/injection, schedule: Q04DX003 (ip), vehicle: saline with Tween-80
[4] = dose: 100.0 mg/kg/injection, schedule: Q01DX009 (ip), vehicle: saline with Tween-80
[5] = dose: 200.0 mg/kg/injection, schedule: Q01DX009 (ip), vehicle: saline with Tween-80
[6] = dose: 400.0 mg/kg/injection, schedule: Q01DX009 (ip), vehicle: saline with Tween-80

Measured: T/C

ON=C1C2CC3CC(C2)CC1C3
inactive: dose: 75.0 mg/kg/injection, schedule: Q01DX001 (ip), vehicle: other 96 % of control | dose: 150.0 mg/kg/injection, schedule: Q01DX001 (ip), vehicle: other 94 % of control | dose: 300.0 mg/kg/injection, schedule: Q01DX001 (ip), vehicle: other 93 % of control

CC(C)=C(B1OC(C)(C)C(C)(C)O1)B1OC(C)(C)C(C)(C)O1
inactive: dose: 100.0 mg/kg/injection, schedule: Q04DX003 (ip), vehicle: Klucel (hydroxypropylcellulose) (HPC) 93 % of control | dose: 200.0 mg/kg/injection, schedule: Q04DX003 (ip), vehicle: Klucel (hydroxypropylcellulose) (HPC) 95 % of control | dose: 400.0 mg/kg/injection, schedule: Q04DX003 (ip), vehicle: Klucel (hydroxypropylcellulose) (HPC) 97 % of control

O=C(C1C2CCC(C2)C1C(=O)N1CCCCC1)N1CCCCC1 (stereo unspecified)
inactive: [1] 100 % of control | [2] 100 % of control | [3] 100 % of control

COc1ccc(-c2cnc3c(N)nn(C)c3n2)cc1
inactive: [4] 109 % of control | [1] 92 % of control | [5] 101 % of control | [2] 100 % of control | [6] 109 % of control | [3] 94 % of control

CCCCCCCCCCCCSCCC(=O)O
inactive: dose: 100.0 mg/kg/injection, schedule: Q01DX001 (ip), vehicle: saline 98 % of control | dose: 200.0 mg/kg/injection, schedule: Q01DX001 (ip), vehicle: saline 95 % of control | dose: 400.0 mg/kg/injection, schedule: Q01DX001 (ip), vehicle: saline 93 % of control

CCCCCSP(SCCCCC)c1ccccc1
inactive: dose: 100.0 mg/kg/injection, schedule: Q01DX009 (ip), vehicle: Klucel (hydroxypropylcellulose) (HPC) 92 % of control | dose: 200.0 mg/kg/injection, schedule: Q01DX009 (ip), vehicle: Klucel (hydroxypropylcellulose) (HPC) 94 % of control

CCCC(=O)OC(=O)N/C=C/NC(=O)OC(=O)CCC
inactive: dose: 100.0 mg/kg/injection, schedule: Q01DX001 (ip), vehicle: alcohol 103 % of control | dose: 200.0 mg/kg/injection, schedule: Q01DX001 (ip), vehicle: alcohol 103 % of control | dose: 400.0 mg/kg/injection, schedule: Q01DX001 (ip), vehicle: alcohol 94 % of control

CCOc1ccc(OCC)c(NC(=O)Nc2cc(Cl)ccc2OC)c1
inactive: dose: 100.0 mg/kg/injection, schedule: Q01DX001 (ip), vehicle: saline with Tween-80 95 % of control | [4] 111 % of control and 90 % of control | dose: 100.0 mg/kg/injection, schedule: Q04DX002 (ip), vehicle: saline with Tween-80 98 % of control and 91 % of control | [1] 96 % of control | dose: 200.0 mg/kg/injection, schedule: Q01DX001 (ip), vehicle: saline with Tween-80 88 % of control | [5] 101 % of control and 92 % of control | dose: 200.0 mg/kg/injection, schedule: Q04DX002 (ip), vehicle: saline with Tween-80 94 % of control and 103 % of control | [2] 94 % of control | dose: 400.0 mg/kg/injection, schedule: Q01DX001 (ip), vehicle: saline with Tween-80 87 % of control | [6] 89 % of control | dose: 400.0 mg/kg/injection, schedule: Q04DX002 (ip), vehicle: saline with Tween-80 91 % of control and 92 % of control | [3] 91 % of control

CN1CCN(CCSC(=O)N2c3ccccc3Sc3ccc(Cl)cc32)CC1
inactive: dose: 75.0 mg/kg/injection, schedule: Q01DX001 (ip), vehicle: saline 94 % of control
